Where a name gives a salt, the structure may show the parent alone.

The test has as its system invasive breast carcinoma lumpectomy/mastectomy specimens and lymph nodes. The experiment in a line: 5-ALA breast study: PpIX fluorescence imaging of breast tumor specimens and lymph nodes with handheld device (405 nm excitation). Conditions: multispectral or multiband fluorescence imaging with 5-ALA. The test is classed as in vivo, human.

Experimental: In one example, oral 5-ALA was dissolved in water and administered by a study nurse between 2-4 h before surgery in patients at dosages of 15 or 30 mg/kg 5-ALA.
By viewing lymph nodes prior to removal from the subject's body, it is possible to observe, using the device 100, red fluorescence emissions from cells containing induced porphyrins that are within the lymph node.
When combined with 5-ALA red FL, the differing emission spectra of normal tissue AF and PpIX are easily distinguishable visually (see FIGS. 15 and 16). […] The 405 nm excitation LEDs and the dual band emission filter (500-545 nm and 600-660 nm) are suitable for breast tumor imaging using 5-ALA because they provide a composite image comprised of red PpIX and green connective tissue FL, and broad green-to-red FL of adipose tissue (appears pink).

On to `NCC(=O)CCC(=O)O` [5-ALA, Aminolevulinic acid hydrochloride], for which the “depth below the imaged tissue surface at which otherwise clinically occult disease is detected” value was ≤ 2.6 mm.
